Experimental data from patent US20220054478A1, “MINIMIZATION OF SYSTEMIC INFLAMMATION” (Ascendis Pharma Oncology Division A/S, priority 2019, published 2022).

Parameters: species or system WISTAR rats
Details: rat, in vivo, sc, 25 ug
Description: Hydrogels were suspended (ca. 6% wt/v) PBST buffer at pH 7.4. […] Blood samples were withdrawn and used for plasma generation over the course of 28 d. […] Plasma concentration profiles were generated and analyzed with Phoenix WinNonlin software (Certara, Princeton, N.J., USA).

t1/2 (biphasic), first phase: 1.5 h
t1/2 (biphasic), second phase: 10 h
Substance: Resiquimod [Compound 4]
